Here are results for 29 compounds from US11014911B2, “CDK2 inhibitors” (Pfizer Inc., priority 2019, dated 2021).

Assay [1] has as its target GSK3β (H350L) (Homo sapiens (Human), UniProt P49841). To be noted: read-out: GSK3β Ki.
Method: The assay was initiated with the addition of ATP, following 15 minutes pre-incubation of enzyme and inhibitor at room temperature in the reaction mixture. The reaction was stopped after 30 minutes at room temperature by the addition of 50 μL of 80 mM EDTA.
For assay [2], the target named is CDK2/Cyclin E1 full length (Homo sapiens (Human), UniProt P24941). As to the kind of experiment: CDK2/Cyclin E1 full length mobility shift assay. Format: biochemical.

Bounds are passed on as bounds.

Sequence of GSK3β (H350L) (P49841 whole entry, stated change not applied): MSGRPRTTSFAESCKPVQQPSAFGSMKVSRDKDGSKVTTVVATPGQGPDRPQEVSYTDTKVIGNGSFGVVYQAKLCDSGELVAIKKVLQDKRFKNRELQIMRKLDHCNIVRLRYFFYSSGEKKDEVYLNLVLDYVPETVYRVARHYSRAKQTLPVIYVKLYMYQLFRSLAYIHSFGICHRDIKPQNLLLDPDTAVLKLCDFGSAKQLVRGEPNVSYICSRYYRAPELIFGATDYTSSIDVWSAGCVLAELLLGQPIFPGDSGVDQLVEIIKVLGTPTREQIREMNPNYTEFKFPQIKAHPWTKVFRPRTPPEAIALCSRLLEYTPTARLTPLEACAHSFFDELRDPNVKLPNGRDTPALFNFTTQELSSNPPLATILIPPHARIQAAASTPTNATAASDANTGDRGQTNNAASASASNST

As for `CCN(C)C(=O)O[C@@H]1CC[C@H](c2cc(NC(=O)Cc3ccc(C)nc3)n[nH]2)C1` [Example 237, (1R,3S)-3-(3-{[(6-methylpyridin-3-yl)acetyl]amino}-1H-pyrazol-5-yl)cyclopentyl ethyl(methyl)carbamate], the Ki in assay [1] turned out to be 5.23 nM; in assay [2], 0.64 nM.

In the case of `CCN(C)C(=O)O[C@@H]1CC[C@H](c2cc(NC(=O)Cc3ccc(F)cc3)n[nH]2)C1` [Example 238, (1R,3S)-3-(3-{[(4-fluorophenyl)acetyl]amino}-1H-pyrazol-5-yl)cyclopentyl ethyl(methyl)carbamate], the Ki in assay [1] came to 14.7 nM; in assay [2] it was 1.13 nM.

Take `CCN(C)C(=O)O[C@@H]1CC[C@H](c2cc(NC(=O)Cc3cnc(C)s3)n[nH]2)C1` [Example 239, (1R,3S)-3-(3-{[(2-methyl-1,3-thiazol-5-yl)acetyl]amino}-1H-pyrazol-5-yl)cyclopentyl ethyl(methyl)carbamate]: the values for the Ki in assay [1] and in assay [2] were 9.44 nM and 1.15 nM, respectively.

Regarding `CCN(C)C(=O)O[C@@H]1CC[C@H](c2cc(NC(=O)Cc3ccc(OC)cc3)n[nH]2)C1` [Example 240, (1R,3S)-3-(3-{[(4-methoxyphenyl)acetyl]amino}-1H-pyrazol-5-yl)cyclopentyl ethyl(methyl)carbamate], the Ki in assay [1] came to 16.1 nM; in assay [2], 0.73 nM.

In the case of `CCN(C)C(=O)O[C@H]1CC[C@@H](c2cc(NC(=O)Cc3ccnc(OC)c3)n[nH]2)C1` [Example 241, (1S,3R)-3-(3-{[(2-methoxypyridin-4-yl)acetyl]amino}-1H-pyrazol-5-yl)cyclopentyl ethyl(methyl)carbamate], the results for the Ki in assay [1] and in assay [2] were 13.4 nM and 1.04 nM, respectively.

Take `CCN(C)C(=O)O[C@@H]1CC[C@H](c2cc(NC(=O)Cc3ccnc(OC)c3)n[nH]2)C1` [Example 242, (1R,3S)-3-(3-{[(2-methoxypyridin-4-yl)acetyl]amino}-1H-pyrazol-5-yl)cyclopentyl ethyl(methyl)carbamate]: the results for the inhibition constant Ki in assay [1] and in assay [2] were 9.7 nM and 0.81 nM, respectively.

With `CCN(C)C(=O)O[C@H]1CC[C@@H](c2cc(NC(=O)Cc3ccc(OC)nc3)n[nH]2)C1` [Example 243, (1S,3R)-3-(3-{[(6-methoxypyridin-3-yl)acetyl]amino}-1H-pyrazol-5-yl)cyclopentyl ethyl(methyl)carbamate], the Ki in assay [1] came to 5.35 nM; in assay [2] it was 0.75 nM.

`CCN(C)C(=O)O[C@@H]1CC[C@H](c2cc(NC(=O)Cc3ccc(OC)nc3)n[nH]2)C1` [Example 244, (1R,3S)-3-(3-{[(6-methoxypyridin-3-yl)acetyl]amino}-1H-pyrazol-5-yl)cyclopentyl ethyl(methyl)carbamate]: the Ki in assay [1] was 3.7 nM; in assay [2], 0.57 nM.

In the case of `CCN(C)C(=O)O[C@@H]1CC[C@H](c2cc(NC(=O)Cc3cc(F)cc(F)c3)n[nH]2)C1` [Example 245, (1R,3S)-3-(3-{[(3,5-difluorophenyl)acetyl]amino}-1H-pyrazol-5-yl)cyclopentyl ethyl(methyl)carbamate], the Ki in assay [1] worked out at 19.2 nM; in assay [2], 0.53 nM.

As for `Cc1ccc(CC(=O)Nc2cc([C@H]3CC[C@@H](OC(=O)NCC(F)F)C3)[nH]n2)cn1` [Example 247, (1R,3S)-3-(3-{[(6-methylpyridin-3-yl)acetyl]amino}-1H-pyrazol-5-yl)cyclopentyl (2,2-difluoroethyl)carbamate], the Ki in assay [1] amounted to 12.2 nM; in assay [2], 1.36 nM.

As to `COc1ccc(CC(=O)Nc2cc([C@H]3CC[C@@H](OC(=O)NCC(F)F)C3)[nH]n2)cc1` [Example 250, (1R,3S)-3-(3-{[(4-methoxyphenyl)acetyl]amino}-1H-pyrazol-5-yl)cyclopentyl (2,2-difluoroethyl)carbamate], the Ki in assay [1] is 27.4 nM; in assay [2], 1.62 nM.

In the case of `COc1ccc(CC(=O)Nc2cc([C@H]3CC[C@@H](OC(=O)NCC(F)F)C3)[nH]n2)cn1` [Example 252, (1R,3S)-3-(3-{[(6-methoxypyridin-3-yl)acetyl]amino}-1H-pyrazol-5-yl)cyclopentyl (2,2-difluoroethyl)carbamate], the figures for the Ki in assay [1] and in assay [2] were 10.6 nM and 1.39 nM, respectively.

As to `O=C(Cc1cc(F)cc(F)c1)Nc1cc([C@H]2CC[C@@H](OC(=O)NCC(F)F)C2)[nH]n1` [Example 253, (1R,3S)-3-(3-{[(3,5-difluorophenyl)acetyl]amino}-1H-pyrazol-5-yl)cyclopentyl (2,2-difluoroethyl)carbamate], the Ki in assay [1] was 28.8 nM; in assay [2], 1.26 nM.

In the case of `CCCCNC(=O)O[C@H]1CC[C@@H](c2cc(NC(=O)Cc3ccno3)n[nH]2)C1` [Example 258, (1S,3R)-3-{3-[(1,2-oxazol-5-ylacetyl)amino]-1H-pyrazol-5-yl}cyclopentyl butylcarbamate], the Ki in assay [1] came to 10.7 nM; in assay [2], 0.74 nM.

Take `CCCCNC(=O)O[C@@H]1CC[C@H](c2cc(NC(=O)Cc3ccno3)n[nH]2)C1` [Example 259, (1R,3S)-3-{3-[(1,2-oxazol-5-ylacetyl)amino]-1H-pyrazol-5-yl}cyclopentyl butylcarbamate]: the Ki in assay [1] came to 17.4 nM; in assay [2] it was 0.68 nM.

Turning to `CC(C)NC(=O)O[C@H]1CC[C@@H](c2cc(NC(=O)c3cnnn3C)n[nH]2)C1` [Example 261, (1S,3R)-3-(3-{[(1-methyl-1H-1,2,3-triazol-5-yl)carbonyl]amino}-1H-pyrazol-5-yl)cyclopentyl propan-2-ylcarbamate], the values for the Ki in assay [1] and in assay [2] were 121 nM and 1 nM, respectively.

On to `CC(C)NC(=O)O[C@@H]1CC[C@H](c2cc(NC(=O)c3cnnn3C)n[nH]2)C1` [Example 262, (1R,3S)-3-(3-{[(1-methyl-1H-1,2,3-triazol-5-yl)carbonyl]amino}-1H-pyrazol-5-yl)cyclopentyl propan-2-ylcarbamate], for which the Ki in assay [1] was more than 47.6 nM; in assay [2], 0.64 nM.

Turning to `CC(C)NC(=O)O[C@H]1CC[C@@H](c2cc(NC(=O)Cc3ccno3)n[nH]2)C1` [Example 263, (1S,3R)-3-{3-[(1,2-oxazol-5-ylacetyl)amino]-1H-pyrazol-5-yl}cyclopentyl propan-2-ylcarbamate], the Ki came out at 31.9 nM in assay [1] and 0.52 nM in assay [2].

In the case of `CC(C)NC(=O)O[C@H]1CC[C@@H](c2cc(NC(=O)Cc3cnn(C)c3)n[nH]2)C1` [Example 266, (1S,3R)-3-(3-{[(1-methyl-1H-pyrazol-4-yl)acetyl]amino}-1H-pyrazol-5-yl)cyclopentyl propan-2-ylcarbamate], the Ki in assay [1] came to 32.6 nM; in assay [2], 0.39 nM.

Regarding `Cc1cnc(CC(=O)Nc2cc([C@@H]3CC[C@H](OC(=O)NC(C)C)C3)[nH]n2)o1` [Example 270, (1S,3R)-3-(3-{[(5-methyl-1,3-oxazol-2-yl)acetyl]amino}-1H-pyrazol-5-yl)cyclopentyl propan-2-ylcarbamate], the figures for the Ki in assay [1] and in assay [2] were 39.9 nM and 0.86 nM, respectively.

As to `Cc1coc(CC(=O)Nc2cc([C@H]3CC[C@@H](OC(=O)NC(C)C)C3)[nH]n2)n1` [Example 272, (1R,3S)-3-(3-{[(4-methyl-1,3-oxazol-2-yl)acetyl]amino}-1H-pyrazol-5-yl)cyclopentyl propan-2-ylcarbamate], the inhibitory constant (Ki) in assay [1] was found to be 40.9 nM; in assay [2], 2.63 nM.

On to `COc1ccc(CC(=O)Nc2cc([C@H]3CC[C@@H](OC(=O)NC(C)C)C3)[nH]n2)cc1` [Example 275, (1R,3S)-3-(3-{[(4-methoxyphenyl)acetyl]amino}-1H-pyrazol-5-yl)cyclopentyl propan-2-ylcarbamate], for which the values for the Ki in assay [1] and in assay [2] were 53.1 nM and 0.49 nM, respectively.

`COc1cc(CC(=O)Nc2cc([C@H]3CC[C@@H](OC(=O)NC(C)C)C3)[nH]n2)ccn1` [Example 276, (1R,3S)-3-(3-{[(2-methoxypyridin-4-yl)acetyl]amino}-1H-pyrazol-5-yl)cyclopentyl propan-2-ylcarbamate]: the Ki in assay [1] worked out at 33.1 nM; in assay [2], 0.64 nM.

For the compound `COCCn1nccc1C(=O)Nc1cc([C@H]2CC[C@@H](OC(=O)NC(C)C)C2)[nH]n1` [Example 278, (1R,3S)-3-[3-({[1-(2-methoxyethyl)-1H-pyrazol-5-yl]carbonyl}amino)-1H-pyrazol-5-yl]cyclopentyl propan-2-ylcarbamate], the results for the Ki in assay [1] and in assay [2] were 56.7 nM and 0.52 nM, respectively.

Regarding `CC(C)NC(=O)O[C@@H]1CC[C@H](c2cc(NC(=O)Cc3cc(F)cc(F)c3)n[nH]2)C1` [Example 279, (1R,3S)-3-(3-{[(3,5-difluorophenyl)acetyl]amino}-1H-pyrazol-5-yl)cyclopentyl propan-2-ylcarbamate], the inhibition constant Ki came out at 53.2 nM in assay [1] and 0.32 nM in assay [2].

Regarding `COc1ncc(CC(=O)Nc2cc([C@H]3CC[C@@H](OC(=O)NC(C)C)C3)[nH]n2)s1` [Example 281, (1R,3S)-3-(3-{[(2-methoxy-1,3-thiazol-5-yl)acetyl]amino}-1H-pyrazol-5-yl)cyclopentyl propan-2-ylcarbamate], the Ki in assay [1] amounted to 24.4 nM; in assay [2] it was 0.33 nM.

In the case of `Cc1cc(CC(=O)Nc2cc([C@H]3CC[C@@H](OC(=O)N(C)C(C)C)C3)[nH]n2)on1` [Example 289, (1R,3S)-3-(3-{[(3-methyl-1,2-oxazol-5-yl)acetyl]amino}-1H-pyrazol-5-yl)cyclopentyl methyl(propan-2-yl)carbamate], the Ki amounted to 10.6 nM in assay [1] and 0.49 nM in assay [2].

`Cn1nncc1C(=O)Nc1cc([C@H]2CC[C@@H](OC(=O)NC(C)(C)C)C2)[nH]n1` [Example 293, (1R,3S)-3-(3-{[(1-methyl-1H-1,2,3-triazol-5-yl)carbonyl]amino}-1H-pyrazol-5-yl)cyclopentyl tert-butylcarbamate]: the results for the Ki in assay [1] and in assay [2] were more than 95.3 nM and 0.85 nM, respectively.

Turning to `CC(C)(C)NC(=O)O[C@@H]1CC[C@H](c2cc(NC(=O)Cc3ccccn3)n[nH]2)C1` [Example 294, (1R,3S)-3-{3-[(pyridin-2-ylacetyl)amino]-1H-pyrazol-5-yl}cyclopentyl tert-butylcarbamate], the Ki came out at 32 nM in assay [1] and 0.62 nM in assay [2].

In general, Ki refers to a dissociation constant, usually derived from enzyme kinetics or from competition with a known ligand.
